From the supplement of paper PMC13380429

Key:
Settings in all cases: 72 h
Vero E6 [1] = experiment: drug sensitivity score (DSS) for viability; higher = more toxic; extreme values may be limits of the assay
U2OS [2] = experiment: as above
Caco-2 [3] = experiment: as above
Calu-3 [4] = experiment: as above
HepG2 [5] = experiment: as above
Vero E6 [6] = experiment: cell viability relative to DMSO; higher = less toxic
U2OS [7] = experiment: as above
Caco-2 [8] = experiment: as above
Calu-3 [9] = experiment: as above
HepG2 [10] = experiment: as above
Vero E6 [11] = experiment: relative viability EC50 (midpoint between 100% and the lowest measured viability); higher = less toxic
U2OS [12] = experiment: as above
Caco-2 [13] = experiment: as above
Calu-3 [14] = experiment: as above
HepG2 [15] = experiment: as above

Row | SMILES | drug sensitivity score (Vero E6 [1]) | drug sensitivity score (U2OS [2]) | drug sensitivity score (Caco-2 [3]) | drug sensitivity score (Calu-3 [4]) | drug sensitivity score (HepG2 [5]) | cell viability (Vero E6 [6]; 1 nM) | cell viability (Vero E6 [6]; 10 nM) | cell viability (Vero E6 [6]; 100 nM) | cell viability (Vero E6 [6]; 1000 nM) | cell viability (Vero E6 [6]; 10000 nM) | cell viability (U2OS [7]; 1 nM) | cell viability (U2OS [7]; 10 nM) | cell viability (U2OS [7]; 100 nM) | cell viability (U2OS [7]; 1000 nM) | cell viability (U2OS [7]; 10000 nM) | cell viability (Caco-2 [8]; 1 nM) | cell viability (Caco-2 [8]; 10 nM) | cell viability (Caco-2 [8]; 100 nM) | cell viability (Caco-2 [8]; 1000 nM) | cell viability (Caco-2 [8]; 10000 nM) | cell viability (Calu-3 [9]; 1 nM) | cell viability (Calu-3 [9]; 10 nM) | cell viability (Calu-3 [9]; 100 nM) | cell viability (Calu-3 [9]; 1000 nM) | cell viability (Calu-3 [9]; 10000 nM) | cell viability (HepG2 [10]; 1 nM) | cell viability (HepG2 [10]; 10 nM) | cell viability (HepG2 [10]; 100 nM) | cell viability (HepG2 [10]; 1000 nM) | cell viability (HepG2 [10]; 10000 nM) | relative viability EC50 (Vero E6 [11]) | relative viability EC50 (U2OS [12]) | relative viability EC50 (Caco-2 [13]) | relative viability EC50 (Calu-3 [14]) | relative viability EC50 (HepG2 [15])
1 | O=C(O)C[C@H](O)C(=O)O [malic-acid] | 0 | 0 | 0 | 0 | 0 | 98.1% | 107% | 96.5% | 100% | 95.5% | 105% | 101% | 103% | 97.6% | 101% | 93% | 91.8% | 99% | 91% | 99.8% | 102% | 108% | 92.3% | 95.2% | 95.2% | 101% | 95% | 94.6% | 95.2% | 95% | > 10 µM | > 10 µM | > 10 µM | > 10 µM | > 10 µM
2 | CC(=O)O[C@]1(C(C)=O)CC[C@H]2[C@@H]3C[C@H](C)C4=CC(=O)CC[C@]4(C)[C@H]3CC[C@@]21C [medroxyprogesterone-acetate] | 0 | 0 | 0 | 0 | 0 | 96.6% | 97.9% | 100% | 98.3% | 98.2% | 97.1% | 99% | 97% | 96.2% | 96.5% | 92.6% | 103% | 94.5% | 101% | 95.8% | 99.8% | 106% | 95.6% | 101% | 103% | 110% | 103% | 99.1% | 95.1% | 97.3% | > 10 µM | > 10 µM | > 10 µM | > 10 µM | > 10 µM
3 | C[C@H]1C[C@@H]2[C@H]([C@@H](O)C[C@@]3(C)[C@H]2CC[C@]3(O)C(=O)CO)[C@@]2(C)C=CC(=O)C=C12 [methylprednisolone] | 0 | 0 | 0 | 0 | 0 | 104% | 103% | 96.6% | 106% | 101% | 102% | 97.9% | 91.4% | 98.9% | 95.2% | 96% | 108% | 90.3% | 99.3% | 98.4% | 105% | 102% | 99.3% | 99.6% | 106% | 109% | 107% | 103% | 98.5% | 104% | > 10 µM | > 10 µM | > 10 µM | > 10 µM | > 10 µM
